Results reported in publication PMC10498496, “Design and Synthesis of Poly(2,2′-Bipyridyl) Ligands for Induction of Cell Death in Cancer Cells: Control of Anticancer Activity by Complexation/Decomplexation with Biorelevant Metal Cations” (Inorganic Chemistry, 2023).
Like-named read-outs stand apart in the source and are kept apart here.

Tests used:
Format in all cases: cell-based, human
[1] = test system: Jurkat cells; test: Annexin V-FITC/PI staining by flow cytometry; conditions: 24 h
Method: The cell death in Jurkat cells induced by 1 and cisplatin (after the treatment for 24 h) was characterized by the flow cytometry of Jurkat cells after co-staining with Annexin V-FITC and PI to characterize the early and late apoptosis or necrosis. Each of the four areas in Figure 6 indicates Annexin V-FITC negative and PI signal positive (= necrotic cells) (top left square), Annexin V-FITC positive and PI positive (= late apoptosis) (top right square), Annexin V-FITC negative and PI negative (= alive cells) (bottom left square); and Annexin V-FITC positive and PI signal negative (= early apoptosis cells) (bottom right square), respectively. As summarized in Figure 7, the percentage of late apoptotic cells of the cells that had been treated with cisplatin increased from 15 to 75% at [cisplatin] = 12.5 to 50 μM and the percentage of late apoptotic cells of cells treated with 1 increased from 14 to 65% at = […] to 5 μM.
Figure 6 Jurkat cells were treated with no ligand (a) and with 1 (0.5–5 μM) (b,c) and cisplatin (12.5–50 μM) (d,e) and for 24 h, stained with Annexin V-FITC/PI, and observed by flow cytometry. The four areas in each graph show necrotic cells in the top left square (Annexin V-FITC^-/PI^+), late apoptotic cells in the top right square (Annexin V-FITC^+/PI^+), alive cells in the bottom left square (Annexin V-FITC^–/PI^–), and apoptotic cells in the bottom right square (Annexin V-FITC^+/PI^–). TEXT PRINTED IN THE PICTURE: (b) 1: 1.14 (0.5 μM); 14.7 (0.5 μM); 83.5 (0.5 μM); 0.7 (0.5 μM) | (c) 1: 0.82 (5 μM); 59 (5 μM); 38.5 (5 μM); 1.6 (5 μM) | (d) cisplatin: 4.19 (12.5 μM); 24.3 (12.5 μM); 71.3 (12.5 μM); 0.23 (12.5 μM) | (e) cisplatin: 0.94 (50 μM); 66.2 (50 μM); 32.6 (50 μM); 0.24 (50 μM) DOUBTS OF THE COPYIST ABOUT THIS PICTURE: The quadrant numbers are printed without a measure or unit. In each panel they are given in the order top left, top right, bottom left, bottom right. / Panel (a) Control (1.26, 3.82, 94.9, 0.072) is left out because it is not a substance.
Jurkat cells (1.0 × 10^5 cells/tube) were incubated in 10% FBS RPMI 1640 medium containing solution of 1 ([…]) and cisplatin (0–50 μM) for 24 h. The cells were then centrifuged at 3000 rpm for 5 min at 4 °C, then the supernatant was discarded, and the pellet was resuspended in 200 μL of PBS. The cells were then centrifuged at 3000 rpm for 5 min at 4 °C, then the supernatant was discarded, and the pellet was resuspended in 195 μL of 1 × binding buffer. A 195 μL aliquot of the sample solution was incubated with 5 μL of FITC-conjugated annexin V (Invitrogen) for 15 min at room temperature in the dark. […] 200 μL of the sample solution transferred to culture tube were analyzed by flow cytometry (Becton Dickinson) using Cell Quest Research Software (Becton Dickinson).

[2] = test system: A549 cells; test: MTT assay, cytotoxicity against A549 cells; conditions: treated for 24 h
Method: (§1) Second, we conducted the quantitative evaluation of the cytotoxicity of 1, 2, and 3 against various cancer cell lines by an MTT (3-(4,5-dimethylthiazol-2-yl)-2,5-diphenyltetrazolium bromide) assay. Jurkat, MOLT-4 (these two cell lines are human T-lymphocyte leukemia cells), and U937 (human lymphoma) cells (1.5 × 10^4 cells/well) were incubated in RPMI 1640 medium containing 10% FBS (fetal bovine serum) containing 1, 2, and 3 (0–25 μM) at 37 °C for 24 h, and then treated with the MTT reagent. A549 (human alveolar adenocarcinoma) and IMR-90 (normal human fetal lung fibroblast as model of normal cells) cells (1.5 × 10^4 cells/well) were incubated in DMEM (low glucose) with 10% FBS containing 1, 2, and 3 (0–25 μM), HeLa S3 (human epithelial carcinoma cells) cells (1.5 × 10^4 cells/well) were incubated in MEM with 10% FBS containing these ligands (0–25 μM) for 24 h at 37 °C and then treated with the MTT reagent.
HeLa S3 cells and A549 cells in MEM and DMEM medium with 10% FBS (1.5 × 10^5 cells/mL per one well) were seeded in to 96 well plates and incubated for 24 h, MTT assay of poly(bpy) ligands (0–25 μM), cisplatin (0–100 μM), and actinomycin D (0–10 μM) was performed according to the same procedure described above.

[3] = test system: MOLT-4 cells; test: MTT assay, cytotoxicity against MOLT-4 cells; conditions: MTT, 37 °C, read-out: EC50 against MOLT-4
Method: as §1
• (a) Cytotoxic study. Jurkat cells, MOLT-4 cells, and U937 cells (1.5 × 10^5 cells/mL per one well) were incubated in 10% FBS RPMI 1640 medium containing 1 (0–25 μM), 2 (0–25 μM) , 3, cisplatin (0–100 μM), and actinomycin D (0–10 μM) under 5% CO2 at 37 °C for 24 h on 96 well plates (Watson), 0.5% MTT (3-(4,5-dimethyl-2-thiazolyl)-2,5-diphenyl-2H-tetrazolium bromide) reagent in PBS (10 μL) was then added to the cells. After incubation at 37 °C for 4 h, a formazan lysis solution (10% SDS in 0.01 N HCl) (100 μL) was added and the resulting solution was incubated overnight under the same conditions, followed by the measurement of absorbance at 570 nm with a microplate reader (BIO-RAD).

Compound	percentage of late apoptotic cells ([1]; 12.5 μM (Figure 7, n = 3)) [%]	percentage of late apoptotic cells ([1]; 50 μM (Figure 7, n = 3)) [%]	EC50 ([2]; 37 °C) [µM]	EC50 ([3]; treated for 24 h) [µM]	percentage of late apoptotic cells ([1]; 0.25 μM (Figure 7, n = 3)) [%]	percentage of late apoptotic cells ([1]; 5 μM (Figure 7, n = 3)) [%]	EC50 ([2]; Homo sapiens, A549, 37 °C) [µM]	EC50 ([3]; Homo sapiens, MOLT-4, treated for 24 h) [µM]	EC50 ([3]; Homo sapiens, MOLT-4, treated for 48 h) [µM]
N.N.[Cl][Pt][Cl] [cisplatin, reference compound]	15	75	> 100	14 ± 0.3	–	–	–	–	–
c1ccc(-c2ccc(OCc3cc(COc4ccc(-c5ccccn5)nc4)cc(COc4ccc(-c5ccccn5)nc4)c3)cn2)nc1 [compound 1, 1,3,5-Tris(([2,2′-Bipyridin]-5-yloxy)methyl)benzene]	–	–	–	–	14	65	15 ± 0.79	0.21 ± 0.36	< 0.1
